Test results: US12714684B2 (ALPARIS, S.A. DE C.V., priority 2019, dated 2026)
Values after ≈ are worked out from the molar mass of the structure shown.

Columns and labels:
[1] = tested on: Complete Freund's Adjuvant (CFA)-induced inflammation; assay: Complete Freund's adjuvant (CFA)-induced inflammation model, volume displacement by plethysmometer; type: in vivo, Sprague-Dawley male rats
Experimental: (§1) Preclinical studies were performed in rats with a chronic inflammation model using complete Freund's adjuvant (CFA) given intra-articularly (AIA), as well as an acute model induced by carrageenan (CAR) given in the subplantar region.
(§2) In these models, the inflammation induced by the complete Freund's adjuvant and carrageenan is determined by the volume displacement measured with a plethysmometer.

[2] = tested on: carrageenan (CAR)-induced inflammation; assay: Carrageenan (CAR)-induced subplantar edema model, volume displacement by plethysmometer; type: in vivo, rats; conditions: for Time from which an anti-inflammatory effect is shown, carrageenan model: oral 100 mg/kg; for Effect in the time course, carrageenan model: oral 100 and 320 mg/kg
Experimental: The carrageenan (CAR)-induced subplantar edema model was used in the evaluation of the acute effect.
as §1, §2

[3] = tested on: CAR-induced thermal hyperalgesia; assay: Thermal hyperalgesia induced by carrageenan; type: in vivo, rats; conditions: oral 100 mg/kg
[4] = Thermodynamic solubility study in water with 1% LSS; type: physicochemical
Experimental: It was performed by adding 2 g of the solid phase to LSS (sodium lauryl sulfate) medium, with stirring at 37.5° C., and taking aliquots at 3, 5, 10 and 30 minutes. Aliquots were filtered and measurements were made with UV-Vis spectroscopy at 420 nm.
We measured the solubility of the co-amorphous phases at a lower concentration of 0.05 g in 3.5 ml, for determining the effect of concentration on the aggregation phenomenon.

[5] = Merck Index 15th ed.; cited from earlier work
[6] = oral, 100 and 320 mg/kg, 1 h before

| SMILES | Effect in relation to the vehicle in the time course, CFA model ([1]; oral 100 and 320 mg/kg, between 2 and 4 hours) | Time from which an anti-inflammatory effect is shown, carrageenan model [2] | Effect in the time course, carrageenan model ([2]; first two hours) | Antihyperalgesic effect, carrageenan-induced thermal hyperalgesia [3] | Effect with respect to the vehicle in the time course, CFA model ([1]; oral 100 mg/kg, at 3 and 4 hours) | Effect with respect to the vehicle in the time course, CFA model ([1]; oral 320 mg/kg, between 2 and 6 hours) | Reversal of the inflammatory effect induced by complete Freund's adjuvant (AUC) [1, 6] | Effect with respect to the vehicle in the time course, carrageenan model ([2]; oral 320 mg/kg, at 1 and 2 hours) | Effect in the time course, carrageenan model ([2]; at 6 hours) | Reversal of the inflammatory effect induced by carrageenan (AUC) [2, 6] | solubility at 30 min ([4]; water with 1% sodium lauryl sulfate (LSS), aqueous with cosolvent or surfactant or cyclodextrin, thermodynamic from solid, high concentration sample, 37.5° C., water with 1% LSS, 30 min) [µg/mL] | Solubility of curcumin alone in water ([4]; water, could not be determined) | Solubility in solvents [5] | Reversal of inflammation induced by complete Freund's adjuvant ([1]; oral, fixed dose 100 mg/kg) | Reversal of inflammation induced by carrageenan ([2]; oral, fixed dose 100 mg/kg) |
| --- | --- | --- | --- | --- | --- | --- | --- | --- | --- | --- | --- | --- | --- | --- | --- |
| N=C(N)NCCC[C@H](N)C(=O)O [L-arginine] | showed an inflammatory effect in relation to the vehicle | only in the last measurement | inclined to show a proinflammatory effect | the three treatments produce an antihyperalgesic effect | – | – | – | – | – | – | – | – | – | – | – |
| COc1cc(/C=C/C(=O)CC(=O)/C=C/c2ccc(O)c(OC)c2)ccc1O [curcumin, (1E,6E)-1,7-bis(4-hydroxy-3-methoxyphenyl)-1,6-heptadiene-3,5-dione] | – | only in the last measurement | – | the three treatments produce an antihyperalgesic effect | shows an inflammatory effect with respect to the vehicle | shows an inflammatory effect with respect to the vehicle | unable to reverse the inflammatory effect | The same phenomenon is observed | seem to reverse the inflammatory effect induced by carrageenan | unable to reverse the inflammatory effect | 110 (≈ 299 µM) | almost insoluble in water | soluble in ethanol and in concentrated acetic acid | – | – |
| O=C(O)Cc1ccccc1Nc1c(Cl)cccc1Cl [diclofenac] | – | – | – | – | – | – | – | – | – | – | – | – | – | exhibited an anti-inflammatory effect | exhibited an anti-inflammatory effect |
